Data published in patent publication US11485720B2, “Anti-infective agents” (University of Dundee, priority 2016, dated 2022).
“And” between values parts separate entries of the source, which are not always exact repeats. Equal values may be shown once. Where a name gives a salt, the structure may show the parent alone.

What was measured:
Hep G2 = Hep G2 in-vitro cytotoxicity assay; format: cell-based; conditions: Homo sapiens, HepG2, read-out: Hs HEPG2 pEC50 (converted)
Description: In-vitro cytotoxicity studies can be carried out using Hep G2 (Human hepatocyte carcinoma, HPACC cat. no. 85011430) used as indicators for general mammalian cell toxicity. Hep G2 in-vitro cytotoxicity can be assessed using the assay procedure as described in “Use of a human-derived liver cell line for the detection of cytoprotective, antigenotoxic and cogenotoxic agents”, Volker Mersch-Sundermann, Siegfried Knasmüller, Xin-jiang Wu, Firouz Darroudi, Fekadu Kassie. J. Tox 198 (2004) 329-340) the contents of which are incorporated herein by reference.

[1] = biological target: T1, Plasmodium falciparum lysyl t-RNA synthetase (Pf-KRS1) (Plasmodium falciparum, UniProt Q8IDJ8); experiment: Pf-KRS1 inhibition biochemical assay (Kinase-Glo, ATP depletion); conditions: read-out: Pf-KRS pIC50 (converted)
T1 construct: Pf KRS1-; made in house; host or cells: E. coli BL21 (DE3)
Description: Plasmodium falciparum Lysine tRNA Synthetase (KRS1) Biochemical Assay Methodology.
Lysine tRNA Synthetase (KRS1) is an enzyme which catalyses the esterification of L-Lysine to the appropriate transfer ribonucleic acid (tRNA), to form an aminoacyl-tRNA. Once the tRNA is charged, a ribosome transfers the amino acid from the tRNA onto a growing peptide, according to the genetic code.
The substrates of this reaction are L-lysine, and adenosine triphosphate (ATP), the overall reaction is: amino acid+tRNA+ATP→aminoacyl-tRNA+AMP+PPi
In this overall reaction AMP is adenosine monophosphate and PP; is inorganic pyrophosphate. The reaction progression in a biochemical assay can be tracked by the depletion of one of the substrates, in the case of this invention, ATP. This was done using the proprietary assay kit, Kinase Glo® Assay which is a luminescent kinase assay platform suitable for monitoring kinase activities using up to 10 μm ATP which is commercially available from the Promega Corporation of Madison, Wis., USA. The Kinase-Glo® Assay was performed in a single well of a multiwell plate by adding a volume of Kinase-Glo® Reagent equal to the volume of a completed kinase reaction and measuring luminescence. The resulting luminescent signal is correlated with the amount of ATP present and is inversely correlated with the amount of kinase activity. As such by use of this assay methodology a reduction of the luminescent signal is relative to the reduction in ATP as the reaction progresses. A compound which inhibits the action of KRS will show no drop in the luminescent signal from assay controls.
Assays were performed using both Plasmodium falciparum and human KRS to assess any selectivity of various test compounds.
Test compounds were solubilized in DMSO at a top concentration of 10 mM and serially diluted 1 in 3 to achieve a range of final assay concentrations of 50 μM to 2.5 nM in 10 μl reaction volume.
KRS was diluted to a working concentration of 75 nM in assay buffer (25 mM HEPES, 25 mM KOH, 10 mM MgCl2.6H2O, 50 mM KCl), and the following ‘Master Mix’ prepared in assay buffer: 0.1 mg/ml BSA, 250 μM DTT, 200 μM Spermine, 0.05% NP-40, ATP 3 μM for Pf KRS1 (4 μM for Hs KRS1), 0.4 mg/ml tRNA from Yeast, 60 μM L-Lysine, 0.5 U/ml Pyrophosphatase.
Plates were incubated at room temperature for 5 h for Pf KRS (2.5 hrs for HsKRS), then the assay stopped by the addition of 10 μl of The Kinase-Glo® Reagent Assay was performed in a single well of a multiwell plate by adding a volume of Kinase-Glo® Reagent which is commercially available from the Promega Corporation of Madison, Wis., USA. The plates were incubated in the dark for a further 15 mins before being read for luminescence on a BMG PHERAstar® FSX plate reader which is a multi-mode reader for use in high-throughput screening available from BMG Labtech if Cary, N.C., USA. Data were analysed by calculating the percentage inhibition compared to the maximum and minimum assay controls. Concentration effect curves were fitted using nonlinear regression within ActivityBase and IC50 values were determined using standard protocols.

[2] = test system: Plasmodium falciparum strain 3D7; experiment: Plasmodium falciparum 3D7 in vitro growth inhibition (SYBRgreen I); format: cell-based; conditions: Plasmodium falciparum, 3D7; read-out: pEC50 for Pf 3D7 (converted)
Protocol: Parasite Cultures and Cytotoxicity Assay Methodology for Plasmodium falciparum. […] Growth inhibition of the Plasmodium falciparum cultures was quantified in a 10-point dose response curve with a 1 in 3 dilution series from a top assay concentration of 50 μM. This 384 well plate based fluorescence assay utilises the binding of SYBRgreen I (Thermo Fisher Scientific/Invitrogen cat. no. S7585) to double stranded DNA, which greatly increases the fluorescent signal at 528 nm after excitation at 485 nm. Mefloquine was used as a drug control to monitor the quality of the assay (Z′=0.6 to 0.8, where Z′ is a measure of the discrimination between the positive and negative controls on a screen plate). Dose-response curves were determined from a minimum of 3 independent experiments. Compound bioactivity was expressed as EC50, the effective concentration of compound causing 50% parasite death.

Cryptosporidium parvum = experiment: In vitro Crytosporidium inhibition assay; format: cell-based; conditions: Cryptosporidium parvum; read-out: Cryptosporidium parvum pEC50 (converted)
Description: Assay Method for Measurement of In Vitro Inhibition of Crytosporidium.
These experiments were run in accordance with the method of Besssoff et. al. Antimicrob. Agents Chemother. 2013, 57:1804-1814. Results from these experiments are provided in the Experimental Results hereinafter.

T1 sequence (Q8IDJ8 entry or part of it, looked up, natural form): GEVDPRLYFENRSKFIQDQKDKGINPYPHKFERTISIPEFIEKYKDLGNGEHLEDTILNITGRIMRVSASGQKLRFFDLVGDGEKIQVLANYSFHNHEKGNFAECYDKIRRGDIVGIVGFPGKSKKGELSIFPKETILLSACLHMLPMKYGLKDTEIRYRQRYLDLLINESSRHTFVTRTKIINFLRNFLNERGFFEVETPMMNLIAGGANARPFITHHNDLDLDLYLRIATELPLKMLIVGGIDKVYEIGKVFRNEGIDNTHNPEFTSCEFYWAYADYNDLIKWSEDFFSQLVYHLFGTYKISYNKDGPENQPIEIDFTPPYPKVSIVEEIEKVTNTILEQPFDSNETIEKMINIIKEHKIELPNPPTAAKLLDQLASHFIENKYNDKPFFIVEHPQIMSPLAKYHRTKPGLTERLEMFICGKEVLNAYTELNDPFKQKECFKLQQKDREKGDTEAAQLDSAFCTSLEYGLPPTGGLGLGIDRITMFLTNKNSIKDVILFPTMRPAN

SMILES	EC50 (Hep G2)	IC50 [1]	EC50 [2]	EC50 (Cryptosporidium parvum)
O=C(NCC1CCCCC1)c1cc(=O)c2cccc(F)c2o1 [Example 8, N-(cyclohexylmethyl)-8-fluoro-4-oxo-chromene-2-carboxamide]	50100 nM			
O=C(NCC1CCCCC1)c1cc(=O)c2ccc(Cl)cc2o1 [Example 9, 7-chloro-N-(cyclohexylmethyl)-4-oxo-chromene-2-carboxamide]		200 nM	1580 nM	3550 nM
O=C(NCC1CCCC1)c1cc(=O)c2ccccc2o1 [Example 23, N-(cyclopentylmethyl)-4-oxo-chromene-2-carboxamide]		398 nM	1580 nM	2000 nM
O=C(NCCC1CCCC1)c1cc(=O)c2ccccc2o1 [Example 26, N-(2-cyclopentylethyl)-4-oxo-chromene-2-carboxamide]		501 nM	6310 nM	10000 nM
O=C(NCC1CCCCO1)c1cc(=O)c2cc(F)ccc2o1 (stereo not drawn) [Example 32, 6-fluoro-4-oxo-N-(tetrahydropyran-2-ylmethyl)chromene-2-carboxamide]		398 nM and 794 nM	1580 nM	
O=C(NCC1CC2CCC1C2)c1cc(=O)c2cc(F)ccc2o1 (stereo not drawn) [Example 36, 6-fluoro-N-(norbornan-2-ylmethyl)-4-oxo-chromene-2-carboxamide]		126 nM	794 nM	1260 nM
O=C(NCC1(CCO)CCCCC1)c1cc(=O)c2cc(F)ccc2o1 [Example 40A, 6-Fluoro-N-((1-(2-hydroxyethyl)cyclohexyl)methyl)-4-oxo-4H-chromene-2-carboxamide]	50100 nM	200 nM	200 nM	
O=C(NCC1CCCCC1)c1cc(=O)c2ccc(F)cc2o1 [Example 42, N-(cyclohexylmethyl)-7-fluoro-4-oxo-chromene-2-carboxamide]		200 nM	794 nM	1260 nM
NC(=O)c1ccc2oc(C(=O)NCC3CCCCC3)cc(=O)c2c1 [Example 43, N2-(cyclohexylmethyl)-4-oxo-chromene-2,6-dicarboxamide]		398 nM	3160 nM	5010 nM
CCc1ccc2oc(C(=O)NCC3(O)CCCCC3)cc(=O)c2c1 [Example 45, 6-ethyl-N-[(1-hydroxycyclohexyl)methyl]-4-oxo-chromene-2-carboxamide]	50100 nM			
O=C(NC[C@@H]1CCCC[C@H]1O)c1cc(=O)c2cc(F)ccc2o1 [Example 57E, 6-Fluoro-N-(((1S,2R)-2-hydroxycyclohexyl)methyl)-4-oxo-4H-chromene-2-carboxamide]	50100 nM			
CCOC(=O)CC1(CNC(=O)c2cc(=O)c3cc(F)ccc3o2)CCCCC1 [Example 57K, Ethyl 2-(1-((6-fluoro-4-oxo-4H-chromene-2-carboxamido)methyl)cyclohexyl)acetate]		316 nM		
O=C(NCC1CCCCC1)c1cc(=O)c2cccc(OCCN3CCNCC3)c2o1 [Example 62, N-(cyclohexylmethyl)-4-oxo-8-(2-piperazin-1-ylethoxy)chromene-2-carboxamide dihydrochloride]	50100 nM			
COc1cccc2c(=O)cc(C(=O)NCC3CCCCC3)oc12 [Example 66, N-(cyclohexylmethyl)-8-methoxy-4-oxo-4H-chromene-2-carboxamide]		501 nM	2510 nM	
O=C(NCC1(O)CCCC1)c1cc(=O)c2cc(F)cc(O)c2o1 [Example 76F, 6-fluoro-8-hydroxy-N-((1-hydroxycyclopentyl)methyl)-4-oxo-4H-chromene-2-carboxamide]		79.4 nM	501 nM	
O=C(NCC1(O)CCC(F)(F)CC1)c1cc(=O)c2ccc(F)c(O)c2o1 [Example 80, N-((4,4-difluoro-1-hydroxycyclohexyl)methyl)-7-fluoro-8-hydroxy-4-oxo-4H-chromene-2-carboxamide]	50100 nM	316 nM		
O=C(NCC1CCCCC1)c1cc(=O)c2cccc(CO)c2o1 [Example 82, N-(cyclohexylmethyl)-8-(hydroxymethyl)-4-oxo-chromene-2-carboxamide]	50100 nM	251 nM	200 nM	
CS(=O)(=O)Nc1cccc2c(=O)cc(C(=O)NCC3(O)CCCCC3)oc12 [Example 84A, N-[(1-hydroxycyclohexyl)methyl]-8-(methylsulfonamido)-4-oxo-4H-chromene-2-carboxamide]	50100 nM			
COC(=O)c1cccc2c(=O)cc(C(=O)NCC3CCCCC3)oc12 [Example 87, Methyl 2-((cyclohexylmethyl)carbamoyl)-4-oxo-4H-chromene-8-carboxylate]	25100 nM		126 nM	
O=C(NCC1CCCCC1)c1cc(=O)c2cccc(C(=O)O)c2o1 [Example 88, 2-((Cyclohexylmethyl)carbamoyl)-4-oxo-4H-chromene-8-carboxylic acid]				7940 nM
NC(=O)c1cccc2c(=O)cc(C(=O)NCC3CCCCC3)oc12 [Example 89, N2-(cyclohexylmethyl)-4-oxo-4H-chromene-2,8-dicarboxamide]	50100 nM	501 nM		
Cc1c(C(=O)NCC2CCCCC2)oc2ccccc2c1=O [Example 90, N-(cyclohexylmethyl)-3-methyl-4-oxo-4H-chromene-2-carboxamide]		1260 nM	5010 nM	
Nc1c(F)ccc2c(=O)cc(C(=O)NCC3(O)CCC(F)(F)CC3)oc12 [Example 92, 8-Amino-N-[(4,4-difluoro-1-hydroxy-cyclohexyl)methyl]-7-fluoro-4-oxo-chromene-2-carboxamide]			79.4 nM	
Nc1cc(F)cc2c(=O)cc(C(=O)NCC3(O)CCCCC3)oc12 [Example 96, 8-amino-6-fluoro-N-[(1-hydroxycyclohexyl)methyl]-4-oxo-4H-chromene-2-carboxamide]			12.6 nM	
Nc1cc(F)cc2c(=O)cc(C(=O)NCC3(F)CCCCC3)oc12 [Example 97, 8-amino-6-fluoro-N-[(1-fluorocyclohexyl)methyl]-4-oxo-4H-chromene-2-carboxamide]	20000 nM		39.8 nM	
Nc1cc(F)cc2c(=O)cc(C(=O)NC[C@H]3CC[C@H](O)CC3)oc12 [Example 98, 8-amino-6-fluoro-N-[(4-hydroxycyclohexyl)methyl]-4-oxo-chromene-2-carboxamide]	50100 nM		631 nM	
CS(=O)(=O)Nc1cc(F)cc2c(=O)cc(C(=O)NCC3CCCCC3)oc12 [Example 100, N-(cyclohexylmethyl)-6-fluoro-8-(methanesulfonamido)-4-oxo-chromene-2-carboxamide]	50100 nM	158 nM	200 nM	
